Test results published in publication PMC7796460, “Relation of Metal-Binding Property and Selective Toxicity of 8-Hydroxyquinoline Derived Mannich Bases Targeting Multidrug Resistant Cancer Cells” (Cancers, 2021).

Key:
[1] = parameters: method as in PMID 30460942; conditions: copper(II) complex of the ligand; cited from earlier work
[2] = Reduction of in situ formed copper(II) complexes by GSH, followed spectrophotometrically; format: physicochemical; conditions: 1:1 metal to ligand, 5 eq GSH (Figure 5B)
Description: Disruption of cellular redox homeostasis can be responsible for the toxicity of an anticancer agent. […] In addition to their redox potentials, redox cycling of the complexed metal ions is also influenced by the kinetics of the reduction and re-oxidation reactions. Reduction of iron(III) and copper(II) complexes by the physiologically relevant reducing agents glutathione (GSH) and ascorbate was followed spectrophotometrically. Although GSH is a stronger reducing agent than ascorbate, ascorbate reacted considerably faster with the iron(III) complexes (Figure 5A), while reduction by GSH seemed to be kinetically hindered (not shown). […]
Figure 5 Reduction of the in situ formed iron(III) and copper(II) complexes from equimolar metal-to-ligand ratios with antioxidants was followed spectrophotometrically by the decrease in the respective absorbance maxima. (A) Time-dependent decrease of the absorbance values in equimolar 1:1 metal to ligand mixtures of FeCl3 with Q-1 at 356 nm (black), Q-2 at 348 nm (blue), Q-3 at 334 nm (green) and Q-4 at 328 nm upon addition of 2.5 equivalents of ascorbate. (B) Time-dependent decrease of the absorbance values in equimolar 1:1 metal to ligand mixtures of CuCl2 with Q-1 at 370 nm (black), Q-2 at 372 nm (blue), Q-3 at 368 nm (green) and Q-4 at 430 nm upon addition of 5 eq GSH. […]

SMILES	pKa CuLH (logβCuLH − logβCuL) [1]	Time until half of the initial copper(II) complex is reduced by GSH [2]
Oc1c(CNCc2ccccc2F)cc(Cl)c2cccnc12 [Compound Q-4, 5-chloro-7-((2-fluorobenzylamino)methyl)quinolin-8-ol]	5.91	not yet fully reached after two hours
Oc1c(CN2CCOCC2)ccc2cccnc12 [Compound Q-2, 7-(morpho-lino-methyl)quinolin-8-ol]		within the first minute
